Reference: patent US20080226682A1, “Immunoactive Compositions for Improved Oral Delivery of Vaccines and Therapeutic Agents” (PerOs Systems Technologies, Inc., priority 2007, published 2008)
Where two headings read alike, the source gives them in different places.

Experiments:
[1] = test system: LPS induced NO generation in RAW264.7 cells; test: PUFA pretreatment, LPS induced NO generation in RAW264.7
[2] = Plasma pharmacokinetics of antibiotics (HPLC); format: in vivo, Coho salmon (Oncorhynchus kisutch); conditions: for AUC, times higher in Formula 2 than same concentration in commercial feed: oral, same dose in both; for Cmax / Tmax / AUC(0-t): plasma; for AUC(0-t): read-out: AUC(0-120 h)
Procedure: In the first study, Coho salmon (n-70 fish/group) were treated with flumequine at a dose of 30 mg/kg incorporated in commercial feed or in formula F2. In the second study, fish were treated orally with florfenicol, antibiotic was given at 15 mg/kg incorporated in commercial feed or at 15 and 50 mg/kg in formula F2. In addition, florfenicol was also given via i.p. injection at 20 mg/kg. At predetermined time periods post-administration, blood samples were collected via the caudal vein according to routine procedures. Levels of antibiotics in plasma of fish were determined by high performance liquid chromatography (HPLC).

trout immune cells = format: cell-based; conditions: purified isoflavone
Source text: The pellet is suspended in RPMI medium.

[3] = test system: PHA induced IFN-gamma production in calf PBMC; test: PHA induced IFN-gamma production in calf PBMC; format: cell-based; conditions: PHA-E+L 1 ug/ml, 3 days, FIG. 9
Procedure: Calf PBMC were isolated as described in Example 3. […] After incubation, supernatants were sampled. Supernatants from identical treatment wells were combined and stored frozen at −18±5° C. until tested for IFN-gamma. Supernatant samples were tested for bovine IFN-gamma using a commercial kit (Thermo Scientific). Briefly, plates were coated overnight with capture antibody in carbonate coating buffer. […] Plates were washed and treated with streptavidin-HRP for 30 minutes at RT. Plates were washed and substrate was added for 20 minutes at RT in the dark. Following incubation, stop solution was added to each well, and plates were read at 450 nm (550 nm reference wavelength). Data was plotted as Stimulation Index (IFN-gamma concentration of sample treated with isoflavone divided by IFN-gamma concentration of sample treated with PHA only) vs. isoflavone concentration. Since isoflavones dilutions were made in DMSO, the DMSO carrier was tested at the corresponding concentrations to determine the carrier effect.

[4] = test system: LPS-induced NO generation in RAW264.7 cells; test: LPS-induced NO generation in RAW264.7 cells (1 hour pretreatment with isoflavones or saponins); format: cell-based, murine
Procedure: In yet another exemplary embodiment, the ability of isoflavones to modulate the production of LPS-induced NO generation in RAW264.7 cells was investigated. […] Cells were incubated with isoflavones for 1 hour at 37±2° C.
Cells were incubated with saponins 1 hour at 37±2° C.

salmon immune cells = conditions: purified isoflavone
shrimp immune cells = conditions: purified isoflavone
swine immune cells = conditions: purified isoflavone
bovine immune cells = conditions: purified isoflavone
feline immune cells = conditions: purified isoflavone
canine immune cells = conditions: purified isoflavone
equine immune cells = conditions: purified isoflavone
human immune cells = conditions: purified isoflavone
[5] = Blood glucose after oral administration of insulin; format: in vivo, CD1 mice; conditions: FIG. 14
Procedure: Preparation of protease inhibitor extracts. Protease inhibitors (4.44 g beans and 0.56 g albumen) were homogenized in Tris-HCL buffer (pH 7.5). The mixture was divided in equal volumes, centrifuged (3500 RPM for 10 minutes) and supernatants were pooled together. Supernatant was then concentrated by centrifugation through 10K cut-off Millipore filter tubes.
Preparation of uptake-increasing agents solution. In a 15 ml falcon tube, 1 ml of carbonate-bicarbonate buffer (0.25 M, pH 9.5) was added to 45 mg of sodium deoxycholate and stirred until complete dissolution. In another 15 ml falcon tube, 7 ml of carbonate-bicarbonate buffer (0.25 M, pH 9.5) was added to 450 mg of EDTA and stirred until complete dissolution. Both solutions were then pooled together.
Final preparation of liquid formulation. […] The liquid formulation was then kept at 4° C. until use.
Experimental Design. Twenty four female CD1 mice of an average weight of 30 g were used in this study (see Table 14 for the identification of experimental groups). […]
CD1 mice were gavaged with insulin (200 U/kg) incorporated in a liquid composition (group A) and in water (group B). […] At determined time periods post-administration (see Table 13), blood samples were taken via the retroorbital sinus and blood glucose levels were measured individually for each animal using an Ascencia™ DEX-2 blood glucose meter kit.

[6] = po, 15 mg/kg, oral in Oralject ™ (F2)
[7] = po, 15 mg/kg, oral in commercial feed
[8] = po, 50 mg/kg, oral in Oralject ™ (F2)
[9] = po, 30 mg/kg, oral in Oralject ™ (F2)
[10] = po, 30 mg/kg, oral in commercial feed

CCCCC/C=C\C/C=C\C/C=C\C/C=C\CCCC(=O)O [AA, arachidonic acid]
concentration required to inhibit to a similar level (40%) ([1]; 24 hours pretreatment, LPS 1 μg/ml 8 hours): 100 µM
immunomodulatory activity ([1]; FIG. 8): marginal to no immunomodulatory activity

CC/C=C\C/C=C\C/C=C\C/C=C\C/C=C\CCCCCC(=O)O [DPA, docosapentaenoic acid]
inhibition (text: of proliferation; FIG. 8: of LPS induced NO production) ([1]; 1 μM PUFA, 24 hours pretreatment, LPS 1 μg/ml 8 hours): 40%
fold more effective at inhibiting than the N-6 PUFA, AA ([1]; FIG. 8): 10-100 fold

CS(=O)(=O)c1ccc([C@@H](O)[C@@H](CF)NC(=O)C(Cl)Cl)cc1 [Florfenicol]
AUC, times higher in Formula 2 than same concentration in commercial feed [2]: 5.2 times
Cmax ([2]; ip, 20 mg/kg, i.p. injection): 7050 ng/mL
Tmax ([2]; ip, 20 mg/kg, i.p. injection): 4 h
AUC(0-t) ([2]; ip, 20 mg/kg, i.p. injection, 20 mg/kg): 196000 ng·h/mL
Cmax [2, 6]: 2150 ng/mL
Tmax [2, 6]: 16 h
AUC(0-t) ([2]; po, 15 mg/kg, oral in Oralject ™ (F2), 15 mg/kg): 34400 ng·h/mL
Cmax [2, 7]: 1380 ng/mL
Tmax [2, 7]: 8 h
AUC(0-t) ([2]; po, 15 mg/kg, oral in commercial feed, 15 mg/kg): 6700 ng·h/mL
Cmax [2, 8]: 7960 ng/mL
Tmax [2, 8]: 6 h
AUC(0-t) ([2]; po, 50 mg/kg, oral in Oralject ™ (F2), 50 mg/kg): 136000 ng·h/mL

CC1CCc2cc(F)cc3c(=O)c(C(=O)O)cn1c23 (stereo not shown) [Flumequine]
peak plasma concentration, fold higher via Formula 2 than with commercial feed ([2]; 30 mg/kg oral, FIG. 17): approximately 5 fold
AUC, times higher in Formula 2 than same concentration in commercial feed [2]: 3.7 times
Cmax [2, 9]: 440 ng/mL
Tmax [2, 9]: 2 h
AUC(0-t) ([2]; po, 30 mg/kg, oral in Oralject ™ (F2), 30 mg/kg): 61900 ng·h/mL
Cmax [2, 10]: 2290 ng/mL
Tmax [2, 10]: 8 h
AUC(0-t) ([2]; po, 30 mg/kg, oral in commercial feed, 30 mg/kg): 16800 ng·h/mL

CCCCC/C=C\C/C=C\CCCCCCCC(=O)O [LA, linoleic acid]
immunomodulatory activity ([1]; FIG. 8): marginal to no immunomodulatory activity

COc1ccc(-c2coc3cc(O)cc(O)c3c2=O)cc1 [biochanin A, 5,7-dihydroxy 4′-methoxy isoflavone]
Cytokine Secretion Profile (determined by RT-PCR) (trout immune cells): None
effect on stimulation indices (IFN-gamma) compared to DMSO control ([3]; 1 μM isoflavone): pronounced increase
effect on stimulation indices (IFN-gamma) compared to DMSO control ([3]; 100 μM isoflavone): inhibitory effect
fold higher inhibitory activity compared to daidzein or genistein ([4]; 25 μM, FIG. 10): approximately 10 fold
Cytokine Secretion Profile (determined by RT-PCR) (salmon immune cells): IL-4
Cytokine Secretion Profile (determined by RT-PCR) (shrimp immune cells): None
Cytokine Secretion Profile (determined by RT-PCR) (swine immune cells): None
Cytokine Secretion Profile (determined by RT-PCR) (bovine immune cells): None
Cytokine Secretion Profile (determined by RT-PCR) (feline immune cells): IL-4, IL-10
Cytokine Secretion Profile (determined by RT-PCR) (canine immune cells): IL-4, IL-10
Cytokine Secretion Profile (determined by RT-PCR) (equine immune cells): IL-10
Cytokine Secretion Profile (determined by RT-PCR) (human immune cells): none

O=c1c(-c2ccc(O)cc2)coc2cc(O)ccc12 [daidzein]
Cytokine Secretion Profile (determined by RT-PCR) (trout immune cells): IFN-gamma
effect on stimulation indices (IFN-gamma) compared to DMSO control ([3]; 10 nM or 100 nM isoflavone): pronounced decrease
effect on stimulation indices (IFN-gamma) compared to DMSO control ([3]; 1 μM isoflavone): pronounced increase
effect on stimulation indices (IFN-gamma) compared to DMSO control ([3]; 100 μM isoflavone): inhibitory effect
Cytokine Secretion Profile (determined by RT-PCR) (salmon immune cells): IFN-gamma
Cytokine Secretion Profile (determined by RT-PCR) (shrimp immune cells): IFN-gamma
Cytokine Secretion Profile (determined by RT-PCR) (swine immune cells): None
Cytokine Secretion Profile (determined by RT-PCR) (bovine immune cells): IL-10
Cytokine Secretion Profile (determined by RT-PCR) (feline immune cells): IL-4
Cytokine Secretion Profile (determined by RT-PCR) (canine immune cells): None
Cytokine Secretion Profile (determined by RT-PCR) (equine immune cells): None
Cytokine Secretion Profile (determined by RT-PCR) (human immune cells): IFN-gamma

O=c1c(-c2ccc(O)cc2)coc2cc(O)cc(O)c12 [genistein, 4′5,7-trihydroxyisoflavone]
Cytokine Secretion Profile (determined by RT-PCR) (trout immune cells): IL-4, IL-10
effect on stimulation indices (IFN-gamma) compared to DMSO control ([3]; 10 nM or 100 nM isoflavone): pronounced decrease
effect on stimulation indices (IFN-gamma) compared to DMSO control ([3]; 1 μM isoflavone): pronounced increase
effect on stimulation indices (IFN-gamma) compared to DMSO control ([3]; 100 μM isoflavone): no effect
Cytokine Secretion Profile (determined by RT-PCR) (salmon immune cells): IL-10
Cytokine Secretion Profile (determined by RT-PCR) (shrimp immune cells): None
Cytokine Secretion Profile (determined by RT-PCR) (swine immune cells): IL-4
Cytokine Secretion Profile (determined by RT-PCR) (bovine immune cells): IL-10
Cytokine Secretion Profile (determined by RT-PCR) (feline immune cells): None
Cytokine Secretion Profile (determined by RT-PCR) (canine immune cells): None
Cytokine Secretion Profile (determined by RT-PCR) (equine immune cells): None
Cytokine Secretion Profile (determined by RT-PCR) (human immune cells): IL-10

CC1(C)C[C@@H](O)[C@]2(C)CC[C@]3(C)C(=CC[C@@H]4[C@@]5(C)CC[C@H](O)[C@](C)(CO)[C@@H]5CC[C@]43C)[C@@H]2C1 [sapogenol B, Sapogenol B]
rank of inhibitory potency among saponins ([4]; FIG. 11): most potent inhibitor
inhibition of LPS-induced NO production ([4]; lowest concentrations, FIG. 11): Zero to minimal inhibition
inhibitory effect on LPS-induced NO production ([4]; saponins in DMSO, FIG. 11): inhibited LPS-induced NO production

insulin: Human recombinant insulin (Sigma, #I2643)
effect on blood glucose levels ([5]; 200 U/kg oral gavage in liquid composition (Formula 2)): markedly reduced blood glucose levels
effect on blood glucose levels ([5]; 200 U/kg oral gavage in water): no efficacy in reducing glucose levels
